What follows are compounds tested on HIV (assay: Table 1 IC50 of the examples (assay method not given; patent concerns inhibiting HIV replication)). Settings: Human immunodeficiency virus 1.
Assay type: cell-based

SMILES	IC50 [nM]
Cc1ccc(C(=O)N2CCc3c2cc(C)c([C@H](OC(C)(C)C)C(=O)O)c3-c2cc(F)c3c(c2C)CCCO3)c(Cl)c1 (atropisomer, axis not shown) [Example 137, (S)-2-(tert-Butoxy)-2-((R)-1-(2-chloro-4-methylbenzoyl)-4-(8-fluoro-5-methylchroman-6-yl)-6-methylindolin-5-yl)acetic acid]	4
COc1ccc(F)cc1C(=O)N1CCc2c1cc(C)c([C@H](OC(C)(C)C)C(=O)O)c2-c1cc(F)c2c(c1C)CCCO2 (atropisomer, axis not shown) [Example 101, (S)-2-(tert-Butoxy)-2-((R)-1-(5-fluoro-2-methoxybenzoyl)-4-(8-fluoro-5-methylchroman-6-yl)-6-methylindolin-5-yl)acetic acid]	5
COc1cc(C(=O)N2CCc3c2cc(C)c([C@H](OC(C)(C)C)C(=O)O)c3-c2ccc(C)cc2)cc(F)c1F [Example 12, (S)-2-(tert-Butoxy)-2-(1-(3,4-difluoro-5-methoxybenzoyl)-6-methyl-4-(p-tolyl)indolin-5-yl)acetic acid]	4
Cc1cc2c(c(-c3cc(F)c4c(c3C)CCCO4)c1[C@H](OC(C)(C)C)C(=O)O)CCN2C(=O)c1cnccc1Cl (atropisomer, axis not shown) [Example 51, (S)-2-(tert-Butoxy)-2-((R)-1-(4-chloronicotinoyl)-4-(8-fluoro-5-methylchroman-6-yl)-6-methylindolin-5-yl)acetic acid]	17
Cc1cc2c(c(-c3cc(F)c4c(c3C)CCCO4)c1[C@H](OC(C)(C)C)C(=O)O)CCN2C(=O)c1cccc(Cl)c1Cl (atropisomer, axis not shown) [Example 92, (S)-2-(tert-Butoxy)-2-((R)-1-(2,3-dichlorobenzoyl)-4-(8-fluoro-5-methylchroman-6-yl)-6-methylindolin-5-yl)acetic acid]	6
Cc1cc2c(c(-c3cc(F)c4c(c3C)CCCO4)c1[C@H](OC(C)(C)C)C(=O)O)CCN2C(=O)c1cccc(F)c1C (atropisomer, axis not shown) [Example 96, (S)-2-(tert-Butoxy)-2-((R)-1-(3-fluoro-2-methylbenzoyl)-4-(8-fluoro-5-methylchroman-6-yl)-6-methylindolin-5-yl)acetic acid]	4
Cc1cc2c(c(-c3cc(F)c4c(c3C)CCCO4)c1[C@H](OC(C)(C)C)C(=O)O)CCN2C(=O)c1ccc(C(=O)N2CCCCC2)cc1 (atropisomer, axis not shown) [Example 112, (S)-2-(tert-Butoxy)-2-((R)-4-(8-fluoro-5-methylchroman-6-yl)-6-methyl-1-(4-(piperidine-1-carbonyl)benzoyl)indolin-5-yl)acetic acid]	295
COc1c(Cl)cccc1C(=O)N1CCc2c1cc(C)c([C@H](OC(C)(C)C)C(=O)O)c2-c1cc(F)c2c(c1C)CCCO2 (atropisomer, axis not shown) [Example 75, (S)-2-(tert-Butoxy)-2-((R)-1-(3-chloro-2-methoxybenzoyl)-4-(8-fluoro-5-methylchroman-6-yl)-6-methylindolin-5-yl)acetic acid]	6.61
Cc1cc2c(c(-c3cc(F)c4c(c3C)CCCO4)c1[C@H](OC(C)(C)C)C(=O)O)CCN2C(=O)c1cccc2c1OCC2 (atropisomer, axis not shown) [Example 100, (S)-2-(tert-Butoxy)-2-((R)-1-(2,3-dihydrobenzofuran-7-carbonyl)-4-(8-fluoro-5-methylchroman-6-yl)-6-methylindolin-5-yl)acetic acid]	5
Cc1cc2c(c(-c3cc(F)c4c(c3C)CCCO4)c1[C@H](OC(C)(C)C)C(=O)O)CCN2C(=O)c1c(F)cccc1F (atropisomer, axis not shown) [Example 111, (S)-2-(tert-Butoxy)-2-((R)-1-(2,6-difluorobenzoyl)-4-(8-fluoro-5-methylchroman-6-yl)-6-methylindolin-5-yl)acetic acid]	43
Cc1cc2c(c(-c3cc(F)c4c(c3C)CCCO4)c1[C@H](OC(C)(C)C)C(=O)O)CCN2C(=O)c1cc(F)ccc1F (atropisomer, axis not shown) [Example 109, (S)-2-(tert-Butoxy)-2-((R)-1-(2,5-difluorobenzoyl)-4-(8-fluoro-5-methylchroman-6-yl)-6-methylindolin-5-yl)acetic acid]	11
COc1ccc(C(=O)N2CCc3c2cc(C)c([C@H](OC(C)(C)C)C(=O)O)c3-c2ccc(C)cc2)c(C)c1 [Example 10, (S)-2-(tert-Butoxy)-2-(1-(4-methoxy-2-methylbenzoyl)-6-methyl-4-(p-tolyl)indolin-5-yl)acetic acid]	12
COc1c(F)ccc(F)c1C(=O)N1CCc2c1cc(C)c([C@H](OC(C)(C)C)C(=O)O)c2-c1ccc(C)cc1 [Example 15, (S)-2-(tert-Butoxy)-2-(1-(3,6-difluoro-2-methoxybenzoyl)-6-methyl-4-(p-tolyl)indolin-5-yl)acetic acid]	117
Cc1ccc(C(=O)N2CCc3c2cc(C)c([C@H](OC(C)(C)C)C(=O)O)c3-c2cc(C)c3c(c2C)CCCO3)cn1 (atropisomer, axis not shown) [Example 195, (S)-2-(tert-Butoxy)-2-((R)-4-(5,8-dimethylchroman-6-yl)-6-methyl-1-(6-methylnicotinoyl)indolin-5-yl)acetic acid]	121
COc1cc(C(=O)N2CCc3c2cc(C)c([C@H](OC(C)(C)C)C(=O)O)c3-c2cc(F)c3c(c2C)CCCO3)ccc1F (atropisomer, axis not shown) [Example 142, (S)-2-(tert-Butoxy)-2-((R)-1-(4-fluoro-3-methoxybenzoyl)-4-(8-fluoro-5-methylchroman-6-yl)-6-methylindolin-5-yl)acetic acid]	2
Cc1ccc(-c2c3c(cc(C)c2[C@H](OC(C)(C)C)C(=O)O)N(C(=O)c2ccc(C)cc2C)CC3)cc1 [Example 9, (S)-2-(tert-Butoxy)-2-(1-(2,4-dimethylbenzoyl)-6-methyl-4-(p-tolyl)indolin-5-yl)acetic acid]	11
COc1c(F)cccc1C(=O)N1CCc2c1cc(C)c([C@H](OC(C)(C)C)C(=O)O)c2-c1ccc2c(c1C)CCCO2 (atropisomer, axis not shown) [Example 181, (S)-2-(tert-Butoxy)-2-((R)-1-(3-fluoro-2-methoxybenzoyl)-6-methyl-4-(5-methylchroman-6-yl)indolin-5-yl)acetic acid]	2
Cc1cc2c(c(-c3cc(F)c4c(c3C)CCCO4)c1[C@H](OC(C)(C)C)C(=O)O)CCN2C(=O)c1cccc2c1CCCO2 (atropisomer, axis not shown) [Example 169, (S)-2-(tert-Butoxy)-2-((R)-1-(chromane-5-carbonyl)-4-(8-fluoro-5-methylchroman-6-yl)-6-methylindolin-5-yl)acetic acid]	2
Cc1cc2c(c(-c3cc(F)c4c(c3C)CCCO4)c1[C@H](OC(C)(C)C)C(=O)O)CCN2C(=O)c1ccc(Cl)c(Cl)c1 (atropisomer, axis not shown) [Example 61, (S)-2-(tert-Butoxy)-2-((R)-1-(3,4-dichlorobenzoyl)-4-(8-fluoro-5-methylchroman-6-yl)-6-methylindolin-5-yl)acetic acid]	17
Cc1ccc(-c2c3c(cc(C)c2[C@H](OC(C)(C)C)C(=O)O)N(C(=O)c2cc(F)ccc2C)CC3)cc1 [Example 33]	13

Source: US20190284136A1, “INDOLINE DERIVATIVES” (ViiV HEALTHCARE UK LIMITED, priority 2016, published 2019)
